Reference: patent US20200131227A1, “POLYPEPTIDE WITH TUMOUR BINDING ACTIVITY” (RUPRECHT-KARLS-UNIVERSITÄT HEIDELBERG, priority 2017, published 2020)
Values belong to the molecule of their own block, whether it stands above or below them. Where a SMILES comes first, the peptide text is derived from it. Bridges are numbered along the chain shown (N, C = ends). Roman numbers before positions name the chains, in order. Where no end group is shown, it is not given here. The star is where a group is joined. DOTA = O=C(O)CN1CCN(CC(=O)O)CCN(CC(=O)*)CCN(CC(=O)O)CC1

Columns and labels:
[1] = system: HNSCC tumor sections (HNO97 xenograft, HNO444, HNO399, HNO210); assay: Histochemical peptide staining of HNSCC tumor cryosections; set-up: species or system human; settings: biotinylated PEG(12)-peptide, 10^-5 M
Procedure: Staining with the biotinylated PEG(12)-SFITGv6 peptide was performed on acetone-fixed cryosections (5 μm) of tumor tissues after blocking of unspecific binding using the Avidin/Biotin Blocking Kit (SP-2001, Vector Laboratories). A stock solution of the lyophilized peptide was prepared by dilution in 5% aqueous DMSO. Slices were incubated overnight at 4° C. with 10^-5 M peptide concentration in antibody diluent (DAKO). Detection of bound peptide was carried out with the Vectastain Elite ABC Kit (PK-6100, Vector Laboratories) according to manufacturer's protocol. Peptide specificity was ensured by a scrambled (GRD) PEG(12)-SFITGv6 derivate, the somatostatin receptor ligand DOTATOC and negative controls (without peptide or primary antibody) Staining results were assessed by bright field microscopy (BX50) with the SC30 camera and the cell Sense software (all Olympus).
Immunohistochemical stainings were performed by use of the biotinylated PEG(12)-labled peptides (SFITGv6, SFLAP3) on 5 μm acetone-fixed tumor tissue cryosections. To prevent background staining we initially applied the Avidin/Biotin Blocking Kit (SP-2001, Vector Laboratories). The lyophilized peptides were diluted in 5% aqueous DMSO preparing a 1 mM Stock solution. The HNSCC cryosections were incubated with 10^−5 M peptide concentration in antibody diluent (DAKO) at 4° C. overnight. To detect bound peptide the Vectastain Elite ABC Kit (PK-6100, Vector Laboratories) was applied according to manufacturer's protocol. Peptide binding specificity was ensured by use of a peptide derivate (scrambled control) and negative controls (without peptide). Due to instability of the peptide binding staining results were assessed on the same day by bright field microscopy (BX50) with the SC30 camera and the cell Sense software (all Olympus).

HNO97 cells [2] = format: binding, human; settings: 48 h
Procedure: (§1) For binding studies, 2.5×10^5 to 4×10^5 cells were seeded in 6-well plates and cultivated for 48 hours. Cells were incubated for 60 min with 1 mL serum-free medium containing the ^125I-labeled peptide (see above). For competition experiments, cells were simultaneously exposed to unlabeled (10^-4 M to 10^-10 M) and ^125I-labeled peptides. After three washing steps with PBS (pH 7.4) the cells were lysed with 0.5 mL of 0.3 M NaOH. Experiments concerning the internalization, kinetics and efflux were additionally performed with ^177Lu-DOTA-SFITGv6. To evaluate kinetics and efflux HNO97 cells were incubated for different time intervals (10 min to 480 min) and 60 min, respectively, with ^177Lu-DOTA-SFITGv6 and lysed as described. To continue with the efflux experiment radioactive medium was replaced by non-radioactive medium and cells were incubated again for 60 to 240 min before measuring radioactivity of the cell lysates and the medium. For internalization experiments the cells were exposed to ^177Lu-DOTA-SFITGv6 for different time intervals (10 to 240 min) at 37° C. and 4° C. After three washing steps with PBS the cells were incubated with 1 mL of glycine-HCl 50 mmol/L in PBS (pH 2.8) for 10 min at RT to remove the surface bound activity. Then, cells were washed with 3 mL of ice-cold PBS and lysed as described. Radioactivity was determined in a gamma counter and calculated as percentage of the applied dose per 1×10^6 cells. Experiments were performed three times, and three repetitions per independent experiment were acquired.

Capan-2 cells = assay: In vitro binding, internalization and efflux on Capan-2 cells; format: cell-based, human
Procedure: For in vitro binding Studies, 4*10^5-6*10^5 cells were seeded in 6 well plates and cultivated for 24 to 48 hours. At the start of the experiment the medium was replaced with 1 ml serum free medium with a definite amount of radioactive labeled peptide per well. For normal binding assays the cells were incubated for 60 min at 37° C. and afterwards washed 3 times with PBS (pH 7.4). Cells were lysed with 2 times 0.5 ml of a 0.3 M NaOH +0.2% SDS lysis-buffer. Competition assays were performed with ^125I-labeled and unlabelled (10^−6 to 10^−11M) peptide and incubated at the same time for 60 min.
Cells were incubated for 10 to 240 min with ^177Lu-labelled peptide in internalization assays. After the washing steps, the cells were incubated with 1 ml glycine-HCl (1 M, pH 2.2) buffer for 10 min to remove surface bound peptide. Prior to the lyses the cells were washed again. Values are given as percentage of applied dose per 10^6 cells.
The efflux was tested with ^177Lu-labeled peptides. After 60 min incubation the radioactive medium was removed and 1 ml fresh serum-free medium was added. After additional incubation of 60, 120 or 240 min, cell bound activity was measured.

carcinoma cell lines = assay: In vitro binding of radiolabeled peptides to several carcinoma cell lines; format: cell-based, human; settings: HNO97, HNO399, HNO223, HNO210, HNO199; 60 min
Procedure: as §1
(§2) For the assessment of the peptide binding capacity in vitro, 2.5-4×10^5 cells were seeded into 6-well plates and cultivated for 48 h. ^125I-labeled peptide resuspended in 1 mL serum-free medium was added and incubated for either 10 min or 60 min with or without different concentrations of unlabeled peptide (10^−4-10^−11 M). Afterwards, cell monolayers were washed three times with 1 mL phosphate-buffered saline (pH 7.4) to remove unbound peptide and the cells were harvested with 1.4 mL lysis buffer (0.3 M NaOH). To evaluate kinetic properties the cells were exposed to ^177Lu-DOTA-labeled peptides for 10, 30, 60, 120, and 240 min, respectively, and lysed as described. For the efflux experiments the cells were incubated with ^177Lu-DOTA-labeled peptides for 60 min. Thereafter, radioactive medium was replaced by non-radioactive medium and cell monolayers were incubated for additional 60, 120, and 240 min and afterwards lysed as described earlier. The internalization was assessed after exposure of the cells to ^177Lu-DOTA-labeled peptides for 10, 30, 60, 120, and 240 min at 37° C. Unspecifically bound peptide was removed from the surface by incubation with 1 M glycine-HCl solution (pH 2.2) for 10 min. The monolayer cell was rinsed with PBS and cells were lysed as described before. Radioactivity was determined in a y-counter and calculated as percentage of the applied dose per 1×10^6 cells. Experiments were performed three times, and three repetitions per independent experiment were acquired.

HNO97 cells [3] = assay: In vitro binding, kinetics, internalization and efflux on HNO97 cells; format: cell-based, human; settings: continuously increasing, within 480 min
Procedure: as §1, §2

[4] = biological target: T1, integrin αvβ6 (ITGαvβ6) as expressed on human carcinoma cell lines and tumor tissue sections (human, UniProt P06756 31-1048; P18564 22-788); assay: unlabelled peptide competing with the 125I-labelled peptide on Capan-2 cells, 60 min
T1 construct: whole, on cells; also called ITGAVB6; ITGαvβ6-expressing HNO97 cells
T1 sequence (P06756 31-1048, chain 1 of 2): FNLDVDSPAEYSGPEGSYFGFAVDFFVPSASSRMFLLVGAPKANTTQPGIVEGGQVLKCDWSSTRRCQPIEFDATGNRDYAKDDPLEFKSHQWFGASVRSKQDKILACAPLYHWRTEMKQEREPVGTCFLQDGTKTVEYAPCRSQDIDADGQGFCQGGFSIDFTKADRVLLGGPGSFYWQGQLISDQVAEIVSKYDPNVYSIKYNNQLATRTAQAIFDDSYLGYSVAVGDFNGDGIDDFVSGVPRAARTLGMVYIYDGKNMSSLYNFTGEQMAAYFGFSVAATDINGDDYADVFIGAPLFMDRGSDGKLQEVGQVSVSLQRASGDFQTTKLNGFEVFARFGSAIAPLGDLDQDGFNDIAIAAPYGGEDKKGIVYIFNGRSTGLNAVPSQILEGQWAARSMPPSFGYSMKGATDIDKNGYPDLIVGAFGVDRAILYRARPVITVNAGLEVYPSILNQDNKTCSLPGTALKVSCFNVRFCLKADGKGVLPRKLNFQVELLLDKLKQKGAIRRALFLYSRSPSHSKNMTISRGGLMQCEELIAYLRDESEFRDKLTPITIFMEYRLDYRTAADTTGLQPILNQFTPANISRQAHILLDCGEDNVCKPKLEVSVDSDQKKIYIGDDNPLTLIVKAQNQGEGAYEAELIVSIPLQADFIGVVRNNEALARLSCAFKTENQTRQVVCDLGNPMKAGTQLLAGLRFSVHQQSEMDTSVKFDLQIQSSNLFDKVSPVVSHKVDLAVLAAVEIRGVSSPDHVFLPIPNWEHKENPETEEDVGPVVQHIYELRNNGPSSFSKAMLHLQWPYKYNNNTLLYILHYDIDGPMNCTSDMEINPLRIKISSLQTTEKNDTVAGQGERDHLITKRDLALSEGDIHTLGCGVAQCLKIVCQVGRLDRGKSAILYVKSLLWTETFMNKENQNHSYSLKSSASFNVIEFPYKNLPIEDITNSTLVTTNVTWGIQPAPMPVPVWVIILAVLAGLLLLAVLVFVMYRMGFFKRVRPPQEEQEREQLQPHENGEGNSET
T1 sequence (P18564 22-788, chain 2 of 2): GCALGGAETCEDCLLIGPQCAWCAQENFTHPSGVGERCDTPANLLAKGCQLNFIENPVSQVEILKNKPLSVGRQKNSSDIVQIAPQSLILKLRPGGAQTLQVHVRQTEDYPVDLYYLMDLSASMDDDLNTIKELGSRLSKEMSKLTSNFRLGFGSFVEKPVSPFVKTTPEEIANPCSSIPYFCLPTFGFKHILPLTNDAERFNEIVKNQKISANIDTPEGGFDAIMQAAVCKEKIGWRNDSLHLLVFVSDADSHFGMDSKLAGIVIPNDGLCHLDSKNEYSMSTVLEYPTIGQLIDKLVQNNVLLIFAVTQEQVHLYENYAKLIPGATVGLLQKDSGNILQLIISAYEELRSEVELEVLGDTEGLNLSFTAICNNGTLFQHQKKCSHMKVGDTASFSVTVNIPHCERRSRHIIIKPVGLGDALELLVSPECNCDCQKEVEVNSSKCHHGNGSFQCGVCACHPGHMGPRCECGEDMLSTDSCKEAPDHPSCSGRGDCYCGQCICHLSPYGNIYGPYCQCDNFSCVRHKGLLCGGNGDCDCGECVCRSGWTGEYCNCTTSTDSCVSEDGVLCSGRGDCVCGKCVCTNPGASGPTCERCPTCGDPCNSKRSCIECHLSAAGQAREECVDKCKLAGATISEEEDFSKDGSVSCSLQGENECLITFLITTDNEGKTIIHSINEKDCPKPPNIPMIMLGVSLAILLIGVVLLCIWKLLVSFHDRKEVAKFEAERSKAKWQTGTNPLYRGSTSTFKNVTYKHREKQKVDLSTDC

Molecule: C[C@@H](O)[C@@H]1NC(=O)[C@H](CCCCN)NC(=O)[C@@H](Cc2c[nH]c3ccccc23)NC(=O)[C@H](Cc2ccc(O)cc2)NC(=O)[C@@H](NC(=O)[C@@H](Cc2ccccc2)NC(=O)CN2CCN(CC(=O)O)CCN(CC(=O)O)CCN(CC(=O)O)CC2)CSSC[C@@H](C(=O)N[C@H](CO)[C@@H](C)O)NC1=O [DOTATOC, DOTA(0)-Phe(1)-Tyr(3))octreotid, reference compound]
histochemical peptide staining result [1]: could not observe any specific binding

IC50 (HNO97 cells [2]): 45.1 nM
Molecule: CC(C)C[C@H](NC(=O)[C@H](CC(=O)O)NC(=O)CNC(=O)[C@H](CCCNC(=N)N)NC(=O)[C@@H]1CCCN1C(=O)[C@@H](N)CO)C(=O)N[C@@H](C)C(=O)N[C@H](C(=O)N[C@@H](CC(C)C)C(=O)NCC(=O)N[C@@H](Cc1c[nH]cn1)C(=O)N[C@@H](CCCCN)C(=O)N[C@@H](Cc1ccc(O)cc1)C(N)=O)C(C)C [HBP-1, reference compound] (H-SPRGDLAVLGHKY-NH2; N-terminus and C-terminus assumed)

IC50 (HNO97 cells [2]): 18 nM
Molecule: CSCC[C@@H]1NC(=O)[C@H](CCCCN)NC(=O)[C@H](CC(=O)O)NC(=O)CNC(=O)[C@H](CCCNC(=N)N)NC(=O)[C@H](Cc2ccccc2)NC(=O)[C@H]([C@@H](C)O)NC(=O)[C@@H](NC(=O)[C@H](CCCNC(=N)N)NC(=O)CN)CSSC[C@@H](C(=O)N[C@@H](Cc2ccc(O)cc2)C(=O)N2CCC[C@H]2C(=O)N[C@@H](CC(=O)O)C(=O)O)NC(=O)[C@H](CC(C)C)NC(=O)[C@H](CCC(N)=O)NC1=O [SFPF-10] (H-GRCTFRGDKMQLCYPD-OH; disulfide 3-13; N-terminus and C-terminus assumed)

Molecule: H2N-G-R-C1-T-G-R-G-D-L-G-R-L-K-C2-Y-P-D-COOH (H-GRCTGRGDLGRLKCYPD-OH; disulfide 3-14; SMILES CC(C)C[C@@H]1NC(=O)[C@H](CC(=O)O)NC(=O)CNC(=O)[C@H](CCCNC(=N)N)NC(=O)CNC(=O)[C@H]([C@@H](C)O)NC(=O)[C@@H](NC(=O)[C@H](CCCNC(=N)N)NC(=O)CN)CSSC[C@@H](C(=O)N[C@@H](Cc2ccc(O)cc2)C(=O)N2CCC[C@H]2C(=O)N[C@@H](CC(=O)O)C(=O)O)NC(=O)[C@H](CCCCN)NC(=O)[C@H](CC(C)C)NC(=O)[C@H](CCCNC(=N)N)NC(=O)CNC1=O) [SFLAP3K]
cellular uptake of ^125I-labeled variant compared with SFLAP3 (Capan-2 cells; different pancreatic carcinoma cell lines (FIG. 25D)): increased cellular uptake

Molecule: SFLAP1: SFTI derivate with grafted LAP1 octamer RRGDLAFI (GRCTRRGDLAFICYPD; disulfide 3-13 (inferred); also: 125I on the tyrosine in labelled form)
binding capacity of ^125I-labeled peptide across HNSCC cell lines (carcinoma cell lines): 4.1-12.1%

Molecule: ^177Lu-DOTA-SFLAP3K: ^177Lu-DOTA-labeled SFLAP3K ({DOTA}-GRCTGRGDLGRLKCYPD; disulfide 3-14; also: DOTA loaded with 177Lu)
cellular uptake of ^177Lu-DOTA-labeled peptide compared with ^177Lu-DOTA-SFLAP3 (Capan-2 cells; 10 and 60 min): did not result in an increased cellular uptake
efflux (released into the culture medium) (Capan-2 cells; during 4 hours following 60 min exposure): 50%

Molecule: ^177Lu-DOTA-SFPF10: ^177Lu-DOTA-labeled SFPF-10 ({DOTA}-GRCTFRGDKMQLCYPD; disulfide 3-13 (inferred); also: DOTA loaded with 177Lu)
binding of ^177Lu-DOTA-labeled peptide (kinetics) (HNO97 cells [3]): up to 23%

Molecule: biotinylated PEG(12)-SFITGv6: biotinylated PEG(12)-SFITGv6 peptide for histochemical staining (GRCTFRGDLMQLCYPD; disulfide 3-13; also: biotinylated PEG(12) label, site not given here)
histochemical peptide staining result ([1]; listed as biotin-labeled SFITGv6): strong and homogenous tumor cell-specific binding
histochemical peptide staining result ([1]; listed as biotinylated SFITGv6): specific, strong and homogeneous binding

IC50 [4]: 6.2 nM
B1: ^177Lu-DOTA-SFLAP3 (peptide)
peptide: {DOTA}-GRCTGRGDLGRLCYPD
modifications: disulfide 3-13; also: DOTA loaded with 177Lu (or peptide 125I-labelled in competition assay)
notes: DOTA conjugate of SFLAP3

IC50 [4]: 2.1 nM
B2: ^177Lu-DOTA-SFLAP3K (peptide)
peptide: {DOTA}-GRCTGRGDLGRLKCYPD
modifications: disulfide 3-14; also: DOTA loaded with 177Lu (or peptide 125I-labelled in competition assay)
notes: DOTA conjugate of SFLAP3K

IC50 [4]: 0.76 nM
B3: ^177Lu-DOTA-SFLAP3-trimer (Formula (XXVII)) (peptide)
chain: {DOTA}-GSGSKGSGSKGSGSK
peptide: GRCTGRGDLGRLCYPD
modifications: disulfide II:3-II:13; also: 177Lu chelated by DOTA, three SFLAP3 units attached by oxime ligation, aminooxy-modified, sites not given here, only one SFLAP3 unit listed as chain
notes: Branched trimer; the exact connectivity stands only in the drawing of formula (XXVII), which is not readable here; also called trimerized peptide
